Here are results for eleven molecules from patent US20250011351A1, “[…] O-ACETYLPSILOCIN, SALTS AND SOLID STATE FORMS THEREOF” (Terran Biosciences Inc., priority 2021, published 2025).

Entries after “also recorded” stand apart in the source; their conditions may differ.

Series [1] in a line: Dynamic vapor sorption (DVS) analysis with XRPD of the post-DVS specimen. The note with it: for hygroscopicity (in words): DVS at 25° C., RH range given with the value; for hydrate formation: hysteresis of the DVS curve; for solid form of the post-DVS specimen: XRPD after the DVS experiment (5 to 95% RH and back); for overall water uptake: range between 5-95% RH. Type of series: physicochemical. The procedure:
(§1) DVS analysis was carried out using a TA Instruments Q5000 Dynamic Vapor Sorption analyzer. The instrument was calibrated with standard weights and a sodium bromide standard for humidity. Approximately 10-25 mg of sample was loaded into a metal-coated quartz pan for analysis. The sample was analyzed at 25° C. with a maximum equilibration time of one hour in 10% relative humidity (RH) steps from 5 to 95% RH (adsorption cycle) and from 95 to 5% RH (desorption cycle). The movement from one step to the next occurred either after satisfying the equilibrium criterion of 0.01% weight change or, if the equilibrium criterion was not met, after one hour. The percent weight change values were calculated using Microsoft Excel®.
as §1, with “Dynamic Vapor Sorption (DVS)” for “DVS”, “is” for “was”, “is” for “were”, “Excel.” for “Excel®.”

The nature of series [2]: Estimated solubility by adding solvent in aliquots to weighed solid, dissolution judged by visual inspection. Conditions: for Solubility / Estimated Solubilities: room temperature.

With `CC(=O)Oc1cccc2[nH]cc(CCN(C)C)c12.O=C(O)CC(O)C(=O)O` [Malate Form B], the Water uptake in series [1] (5-85% RH) is given as 0.8%, 5-85% RH;; in series [1] (above 85% RH), 4.5% above 85%. Besides, the “Water uptake (25-65% RH) %” value in series [1] is roughly 0.3%.
As for `CC(=O)Oc1cccc2[nH]cc(CCN(C)C)c12.O=C(O)C[C@H](O)C(=O)O` [L-malate salt, Form B, O-Acetyl Psilocin Malate], in series [1], the “hygroscopicity (in words)” value was “non-hygroscopic in the range between 5-85% RH; also recorded: hygroscopic above 850% RH” and the “solid form of the post-DVS specimen” value is given as “consistent with Form B”. In series [1] (DVS, above 85% RH), the Water uptake entry was “approx. 4.500%” and the hydrate formation result was “no hydrate formation occurred”. For the same molecule, in series [1] (DVS, above 85% RH, listed as Malate B), the hydrate formation entry was “possible hydrate formation”.
Turning to `CC(=O)Oc1cccc2[nH]cc(CCN(C)C)c12.O=C(O)/C=C/C(=O)O` [O-acetylpsilocin fumarate Form A, O-acetylpsilocin fumarate], in series [1], the “hygroscopicity (in words)” value is recorded as “non-hygroscopic”. Besides, the overall water uptake result in series [1] (DVS) is “approx. 0.1%”. Besides, the Solubility is less than 1000 µg/mL in series [2] (1,4-dioxane); 1000 µg/mL in series [2] (2-propanol (2-PrOH)); greater than 33000 µg/mL in series [2] (50:50 MeOH:water); greater than 55000 µg/mL in series [2] (50:50 THF:water); greater than 75000 µg/mL in series [2] (70:30 ACN:water); greater than 51000 µg/mL in series [2] (70:30 acetone:water). Also, the Solubility was 3000 µg/mL in series [2] (95:5 1,4-dioxane:water); 12000 µg/mL in series [2] (95:5 ACN:water); 9000 µg/mL in series [2] (95:5 EtOH:water); 4000 µg/mL in series [2] (95:5 IPA:water); greater than 26000 µg/mL in series [2] (95:5 MeOH:water); greater than 17000 µg/mL in series [2] (95:5 THF:water). Besides, the Solubility in series [2] (95:5 acetone:water) is 10000 µg/mL; in series [2] (acetone) it was less than 1000 µg/mL; in series [2] (acetonitrile (ACN)), less than 1000 µg/mL; in series [2] (dichloromethane (DCM)), less than 1000 µg/mL; in series [2] (ethanol (EtOH)) it was 2000 µg/mL; in series [2] (ethyl acetate (EtOAc)), less than 1000 µg/mL. Further, the Solubility was less than 1000 µg/mL in series [2] (hexanes); 2000 µg/mL in series [2] (methanol (MeOH)); 1000 µg/mL in series [2] (tetrahydrofuran (THF)); less than 1000 µg/mL in series [2] (toluene); 11000 µg/mL in series [2] (water).
For `CC(=O)Oc1cccc2[nH]cc(CCN(C)C)c12` [O-Acetyl Psilocin Freebase, O-Acetyl Psilocin], the “Estimated Solubilities” value is given as greater than 62 in series [2] (1,4-dioxane); greater than 50 in series [2] (2-methyltetrahydrofuran 2-Me(THF)); greater than 32 in series [2] (2-propanol (2-PrOH)); greater than 51 in series [2] (Methyl ethyl ketone (MEK)); greater than 23 in series [2] (Methyl tert-butyl ether (MTBE)); greater than 59 in series [2] (acetone). For the same molecule, the “Estimated Solubilities” value was greater than 67 in series [2] (acetonitrile (ACN)); greater than 62 in series [2] (ethanol (EtOH)); less than 1 in series [2] (hexanes); greater than 62 in series [2] (methanol (MeOH)); greater than 59 in series [2] (toluene); less than 1 in series [2] (water).
`CC(=O)Oc1cccc2[nH]cc(CCN(C)C)c12.O=C(O)C(O)C(O)C(=O)O` [L-tartrate salt, Form A, O-Acetyl Psilocin Tartrate]: in series [1], the “hygroscopicity (in words)” value is listed as “non-hygroscopic in the range from 5-85% RH; also recorded: hygroscopic above 85% RH”; the “solid form of the post-DVS specimen” value is “consistent with Form A by XRPD analysis and exhibited additional diffraction peaks”. For the same molecule, in series [1] (DVS, above 85% RH), the Water uptake result is recorded as “approx. 6%” and the hydrate formation entry is “consistent with hydrate formation”. Also, the hydrate formation entry in series [1] (DVS, above 85% RH, listed as Tartrate A) is reported as “possible hydrate formation”.
As for `CC(=O)Oc1cccc2[nH]cc(CCN(C)C)c12.O=C(O)C(O)C(O)C(=O)O` [L-tartrate, Form A], in series [1] (DVS), the “RH above which hygroscopic (DVS)” value was greater than 85 % RH and the “RH range in which non-hygroscopic (DVS)” value is 5-85 % RH. For the same molecule, the “hydrate formation upon DVS” value in series [1] (DVS, high RH) is “resulting in hydrate”. Moreover, the “water uptake, DVS” value in series [1] (above 85% RH) is recorded as roughly 6%.
For `CC(=O)Oc1cccc2[nH]cc(CCN(C)C)c12.O=C(O)C(O)C(O)C(=O)O` [Tartrate Form A], the “Water uptake (25-65% RH) %” value in series [1] was determined as 0.1%. Further, in series [1] (85-95% RH), the Water uptake is 5-6% 85-95% RH. The “RH at which likely hydrate formation is shown” value in series [1] (listed as 'Other forms') is “at 95% RH”.
On to Maleate, for which, in series [1] (5-95% RH), the Water uptake was ~0.8, 5-95%. Moreover, the “Water uptake (25-65% RH) %” value in series [1] was roughly 0.3%. In series [2] (water), the “Water solubility” value was greater than 50000 µg/mL.
Regarding `CN(C)CCc1c[nH]c2cccc(OP(=O)(O)O)c12` [psilocybin], in series [1], the “hygroscopicity (in words)” value is “hygroscopic between 75-95% RH; also recorded: Hygroscopic above 75% RH:” and the “solid form of the post-DVS specimen” value was “converted to a hydrate Form B; also recorded: a hydrated form of psilocybin resulted from water sorption between 75-95% RH; also recorded: Crystalline Form B (hydrate)”.
In the case of `CC(=O)Oc1cccc2[nH]cc(CCN(C)C)c12.O=C(O)/C=C\C(=O)O` [maleate salt, Form A, O-acetyl psilocin maleate], the “hygroscopicity (in words)” value in series [1] is recorded as “non-hygroscopic”; in series [1] (listed as maleate salt), “minimal water sorption over the RH range”. The overall water uptake result in series [1] (DVS) is “approx. 0.8%”. In addition, the “solid form of the post-DVS specimen” value in series [1] is “consistent with Form A”.
For the molecule `CC(=O)Oc1cccc2[nH]cc(CCN(C)C)c12.CS(=O)(=O)O` [mesylate salt, Form A, O-Acetyl Psilocin Mesylate], in series [1], the “hygroscopicity (in words)” value is reported as “non-hygroscopic in the range from 5-55% RH; also recorded: highly hygroscopic material above 55% RH” and the “solid form of the post-DVS specimen” value is “a liquid”. In series [1] (DVS, above 55% RH), this molecule registered a Water uptake of 40%.

The term Solubility denotes the concentration that dissolves in the medium under given conditions.
